Experimental data reported in ChEMBL document CHEMBL1124536, “Heteroaromatic analogues of the alpha 2-adrenoreceptor partial agonist clonidine” (J Med Chem, 1989).
Blank lines part the entries; values can stand above or below the compound they belong to.

Key:
[1] = molecular target: T1, Adrenergic receptor alpha-1 (Rattus norvegicus) (UniProt P15823+P23944+P43140); experiment: In vitro agonist activity against alpha-1 adrenergic receptor in rat anococcygeus; type: functional
[2] = molecular target: T1, Adrenergic receptor alpha-1 (Rattus norvegicus); experiment: In vitro antagonistic activity against alpha-1 adrenergic receptor in rat anococcygeus; Ag means compound was agonist.; type: functional; details: filed as agonist
[3] = molecular target: T2, Adrenergic receptor alpha-2 (Rattus norvegicus) (UniProt P22086+P19328+P22909); experiment: In vitro agonist activity against alpha-2A adrenergic receptor in rat vas deferens; type: functional, tissue-based
[4] = molecular target: T2, Adrenergic receptor alpha-2 (Rattus norvegicus); experiment: In vitro antagonistic activity against alpha-2A adrenergic receptor in rat vas deferens; Ag means compound was agonist.; type: functional; details: filed as agonist
[5] = molecular target: T1, Adrenergic receptor alpha-1 (Rattus norvegicus); experiment: In vitro antagonistic activity against alpha-1 adrenergic receptor in rat anococcygeus; type: functional
Rattus norvegicus [6] = species: Rattus norvegicus; experiment: Maximum percent inhibition electrically evoked contractions of rat vas deferens by the compound was determined as test for its agonistic activity; type: functional
Rattus norvegicus [7] = experiment: Effective dose of the compound required to inhibit electrically evoked contractions of rat vas deferens after i.v. administration; type: functional; details: iv
Rattus norvegicus [8] = species: Rattus norvegicus; experiment: Antagonist activity against guanoxabenz-induced mydriasis in rat when given […]; type: functional
[9] = molecular target: T2, Adrenergic receptor alpha-2 (Rattus norvegicus); experiment: In vitro agonist activity against alpha-2 adrenoceptor in rat vas deferens; type: functional, tissue-based
[10] = molecular target: T2, Adrenergic receptor alpha-2 (Rattus norvegicus); experiment: In vitro antagonistic activity against alpha-2 adrenoceptor in rat vas deferens; Ag means compound was agonist.; type: functional; details: filed as agonist
[11] = molecular target: T1, Adrenergic receptor alpha-1 (Rattus norvegicus); experiment: In vitro antagonistic activity against alpha1 adrenoceptor in rat anococcygeus; Ag means compound was agonist.; type: functional; details: filed as agonist
[12] = molecular target: T1, Adrenergic receptor alpha-1 (Rattus norvegicus); experiment: In vitro agonist activity against alpha-1 adrenoceptor in rat anococcygeus; type: functional
[13] = molecular target: T2, Adrenergic receptor alpha-2 (Rattus norvegicus); experiment: In vitro antagonistic activity against alpha-2A adrenergic receptor in rat vas deferens; type: functional, tissue-based
[14] = molecular target: T2, Adrenergic receptor alpha-2 (Rattus norvegicus); experiment: Antagonistic potency towards alpha-2 adrenergic receptor was determined by observing twich response of rat vas deferens after i.v. administration; type: functional, organism-based
[15] = molecular target: T2, Adrenergic receptor alpha-2 (Rattus norvegicus); experiment: In vitro antagonistic activity against alpha-2 adrenoceptor in rat vas deferens; type: functional, tissue-based
Rattus norvegicus [16] = species: Rattus norvegicus; experiment: Antagonist potency for alpha 2 adrenoceptor; type: functional, organism-based; details: read-out: pA2 (converted)
[17] = molecular target: T1, Adrenergic receptor alpha-1 (Rattus norvegicus); experiment: In vitro antagonistic activity against Alpha-1 adrenergic receptor in rat anococcygeus; type: functional
[18] = molecular target: T2, Adrenergic receptor alpha-2 (Rattus norvegicus); experiment: In vitro antagonistic activity against Alpha-2 adrenergic receptor in rat vas deferens; Ag means compound was agonist.; type: functional; details: filed as agonist
[19] = molecular target: T2, Adrenergic receptor alpha-2 (Rattus norvegicus); experiment: In vitro agonist activity against Alpha-2 adrenergic receptor in rat vas deferens; type: functional, tissue-based
[20] = molecular target: T2, Adrenergic receptor alpha-2 (Rattus norvegicus); details: Vas deferens
Description: Inhibitory activity against Alpha-2 adrenergic receptor in rat vas deferens

Compound: c1ccc(CN2CCOc3cc(NC4=NCCN4)ccc32)cc1
Potency [5]: 0.001
Potency [1]: 0
Potency [3]: 0.02
Potency [4]: Agonist

Compound: Clc1cccc(Cl)c1NC1=NCCN1
Potency [9]: 0.49
Potency [10]: Agonist
Potency [11]: Agonist
Potency [12]: 0.8

Compound: O=C1COc2ccc(NC3=NCCN3)cc2N1
Potency [1]: 0.002
Potency [2]: Agonist
Potency [3]: 0
Potency [13]: 0.0005

Compound: CC(=O)N1CCc2ccc(NC3=NCCN3)cc21
Potency [5]: 2e-05
Potency [1]: 0
Potency [3]: 0.006
Potency [4]: Agonist

Compound: CCN1CCc2ccc(NC3=NCCN3)cc21
Potency [1]: 0.17
Potency [2]: Agonist
Potency [3]: 0
Potency [13]: 0.04

Compound: c1cc2c(cc1NC1=NCCN1)OCO2
Potency [5]: 0.003
Potency [1]: 0
Potency [3]: 0.03
Potency [13]: 0.025

Compound: O=C1COc2cc(NC3=NCCN3)ccc2N1
Potency [9]: 0
Potency [11]: Agonist
Potency [12]: 0.006
Potency [15]: 0.0013

Compound: c1ccc2c(c1)OCC(C1=NCCN1)O2 (centres undefined) [IDAZOXAN]
AD50 (Rattus norvegicus [8]): 0.02936 mg/kg
DR2 (ug min-1 kg-1) [14]: 2
Kb (Rattus norvegicus [16]): 10.5 nM

Compound: CCN1CCOc2cc(NC3=NCCN3)ccc21
Potency [1]: 0.055
Potency [2]: Agonist
Potency [3]: < 0.01
Potency [4]: Agonist

Compound: c1cc2c(cc1NC1=NCCN1)OCCO2
Potency [11]: Agonist
Potency [18]: Agonist
Potency [12]: 0.01
Potency [19]: 1.5

Compound: Brc1c(NC2=NCCN2)ccc2nccnc12 [BRIMONIDINE]
Inhibition (Rattus norvegicus [6]): 100%
ED40 (Rattus norvegicus [7]): 0.0033 mg/kg

Compound: Nc1cc(Cl)c(N=C2NCCN2)c(Cl)c1
IC40 [20]: 1.99 nM

Second part, led by results:

Potency [1]: 0.5
Potency [2]: Agonist
Potency [3]: 0.025
Potency [4]: Agonist
Compound: CN1CCOc2ccc(NC3=NCCN3)cc21

Potency [5]: 0.0006
Potency [1]: 0
Potency [3]: 0.1
Potency [4]: Agonist
Compound: CC(=O)N1CCOc2ccc(NC3=NCCN3)cc21.I
Inhibition (Rattus norvegicus [6]): 69%
ED40 (Rattus norvegicus [7]): 0.0179 mg/kg
AD50 (Rattus norvegicus [8]): >0.2 mg/kg

Potency [9]: 0.006
Potency [10]: Agonist
Potency [11]: Agonist
Potency [12]: 0.02
Compound: O=CN1CCOc2cc(NC3=NCCN3)ccc21

Potency [1]: 0.0002
Activity [2]: Agonist
DR2 (ug min-1 kg-1) [14]: 4.62
Potency [3]: 0.03
Activity [4]: Agonist
Compound: CN1CCOc2cc(NC3=NCCN3)ccc21.I
Inhibition (Rattus norvegicus [6]): 65%
ED40 (Rattus norvegicus [7]): 6.74 mg/kg
AD50 (Rattus norvegicus [8]): 0.0589 mg/kg

Potency [17]: 0.0006
DR2 (ug min-1 kg-1) [14]: 6.8
Potency [3]: 0.02
Potency [4]: Agonist
Compound: I.O=CN1CCOc2ccc(NC3=NCCN3)cc21
Inhibition (Rattus norvegicus [6]): 62%
ED40 (Rattus norvegicus [7]): 0.385 mg/kg
AD50 (Rattus norvegicus [8]): 0.297 mg/kg

Potency [5]: 0.0005
Potency [1]: 0
Potency [3]: 0.22
Potency [4]: Agonist
Compound: CS(=O)(=O)N1CCOc2ccc(NC3=NCCN3)cc21.I
Inhibition (Rattus norvegicus [6]): 70%
ED40 (Rattus norvegicus [7]): 0.0273 mg/kg
AD50 (Rattus norvegicus [8]): >0.3 mg/kg
